Legend:
[1] = system: Candida tropicalis CECT 1440; assay: In vitro activity against Candida tropicalis CECT 1440 (MIC and RIF); format: cell-based; details: for RIF: Relative Inhibition Factor, Candida tropicalis CECT 1440; for activity compared with Clotrimazole: applicant's own tests, illustrated by the table of Example 3
Source text: In vitro activity against Candida tropicalis CECT 1440.
This pharmacological test allows a comparison of the activities of the two products of the present invention (WAS 2160 and WAS 2169) with the activities of the structurally closest described product (SQ 80896), the structurally closest commercial product (Clotrimazole) and the analogue product without the seven-membered ring (WAS 2162). MIC (Minimum Inhibitory Concentration, in […]) and RIF (Relative Inhibition Factor) parameters were determined in a standard way, obtaining the results of the table (WAS 2162 is the nitric acid salt of 1-[(2,4-dichlorophenyl)phenylmethyl]-1H-imidazole, prepared at our laboratory).

candidiosis = assay: In vivo antifungal activity against candidiosis; details: guinea pig candidiosis, double-blind
Method: In vivo test of antifungal activity against candidiosis in guinea pig
A double-blind comparative test was carried out with WAS 2160 and Clotrimazole, with the following results: […]

[2] = system: Trichophyton mentagrophytes; assay: In vivo protection against experimentally-induced dermatophytosis; details: guinea pig, double-blind
Method: In vivo tests of protection against experimentally-induced dermatophytosis in the guinea pig, caused by Trichophyton mentagrophytes.
Two double-blind comparative tests were carried out, with the following results: […]

C. albicans = assay: In vitro MIC, progressive double dilutions in liquid medium; format: cell-based; design: unit not given here; details: Sabouraud broth with gentamycin
Method: (§1) In vitro ativity against 116 strains of yeasts and 45 strains of dermatophytes
(§2) MIC-s were determined by the method of progressive double dilutions in a liquid medium, using sterile microplates. The culture medium used was the Sabouraud broth with gentamycin (100 mg/1000 mL).

C. tropicalis = assay: as above; format: cell-based; design: unit not given here; details: Sabouraud broth with gentamycin
Method: as §1, §2

C. parapsilosis = assay: as above; format: cell-based; design: unit not given here; details: Sabouraud broth with gentamycin
Method: as §1, §2

M. gypseum = assay: as above; format: cell-based; design: unit not given here; details: Sabouraud broth with gentamycin
Method: as §1, §2

[3] = Tolerance test in rabbits (eye, skin, vagina); format: in vivo; details: skin and vagina
Source text: Tolerance test of WAS 2160 in rabbits

Torulopsis glabrata = assay: In vitro MIC, progressive double dilutions in liquid medium; format: cell-based; details: Sabouraud broth with gentamycin
Method: as §1, §2

Trich. rubrum = assay: as above; format: cell-based; details: Sabouraud broth with gentamycin
Method: as §1, §2

Microsporum canis = assay: as above; format: cell-based; details: Sabouraud broth with gentamycin
Method: as §1, §2

C. Krusei = assay: as above; format: cell-based; details: Sabouraud broth with gentamycin
Method: as §1, §2

T. tonsurans = assay: as above; format: cell-based; details: Sabouraud broth with gentamycin
Method: as §1, §2

Epidermophyton floccosum = assay: as above; format: cell-based; details: Sabouraud broth with gentamycin
Method: as §1, §2

Trichoph. mentagrophytes = assay: as above; format: cell-based; details: Sabouraud broth with gentamycin
Method: as §1, §2

[4] = system: Malassezia furfur (Pytiosporum); assay: In vitro test against 30 strains of Malassezia furfur; format: cell-based; details: for % of strains with PIC lower than 40 »g/mL: PIC = Partial Inhibitory Concentration: growth inhibition greater than 50% in relation to controls
Method: In vitro test against 30 strains of Malassezia furfur (Pytiosporum)
A double-blind comparative test was carried out with WAS 2160, Clotrimazole and Bifonazole, with the results of the table. (PIC = Partial Inhibitory Concentration: growth inhibition greater than 50% in relation to controls).

Candida albicans = details: data of US 4.420.474 Table I; cited from earlier work

Compound | RIF [1] | % of animals with total clin. healing (candidiosis) [%] | % of negative cultures after treatment (candidiosis) [%] | % of negative cultures after treatment ([2]; test I) | MIC (C. albicans) | MIC (C. tropicalis) | MIC (C. parapsilosis) | MIC (M. gypseum) | MIC (Torulopsis glabrata) | MIC (Trich. rubrum) | MIC (Microsporum canis) | MIC (C. Krusei) | MIC (T. tonsurans) | MIC (Epidermophyton floccosum) | MIC (Trichoph. mentagrophytes) | % of strains with MIC lower than 40 »g/mL [4] [%] | % of strains with PIC lower than 40 »g/mL [4] [%] | % of negative cultures after treatment ([2]; test II) | activity compared with Clotrimazole [1] | other results
Clc1cc(Cl)c2c(c1)CCc1ccccc1C2n1ccnc1.O=[N+]([O-])O (racemic) [WAS 2160, 1-(2,4-Dichloro-10,11-dihydro-5H-dibenzo[a,d]cyclohepten-5-yl)-1H-imidazole nitrate] | 39.31 | 60 | 100 | 50% | 2,25 | 3,44 | 2,06 | 1,05 | 1,25 | 0,54 | 0,39 | 3,17 | 0,19 | 0,32 | 0,17 | 40 | 60 | – | – | Tolerance [3]: innocuous and totally tolerated by the eye, the skin and the vagina
Clc1cc(Cl)c2c(c1)C=Cc1ccccc1C2n1ccnc1.O=[N+]([O-])O (racemic) [WAS 2169, 1-(2,4-dichloro-5H-dibenzo[a,d]cyclohepten-5-yl)-1H-imidazole nitrate] | 54.94 | – | – | – | 1,98 | 7,58 | 1,08 | 0,08 | 6,33 | 0,30 | 0,06 | 5,61 | – | – | 0,17 | – | – | 81,8% | – | –
c1ccc(-c2ccc(C(c3ccccc3)n3ccnc3)cc2)cc1 (centres unmarked) [Bifonazole] | – | – | – | 39 % (test I) | 12,10 | 72,67 | 58,97 | 6,25 | 14,88 | 1,19 | 3,12 | 50,50 | 1,20 | 0,02 | 1,48 | 83 | 50 | 0 % (test II) | – | –
Clc1ccccc1C(c1ccccc1)(c1ccccc1)n1ccnc1 [Clotrimazole] | 43.05 | 30 | 100 | – | 2,43 | 3,51 | 2,36 | 0,97 | 6,29 | 0,31 | 2,69 | 6,18 | 0,90 | 0,09 | 0,23 | 33 | 56 | – | – | –
Clc1ccc2c(c1)C(n1ccnc1)c1ccccc1CC2 (centres unmarked) [SQ 80896, 1-(3-chloro-10,11-dihydro-5H-dibenzo[a,d]dicyclohepten-5-yl)-1H-imidazole] | 83.96 | – | – | – | – | – | – | – | – | – | – | – | – | – | – | – | – | – | considerably less active than Clotrimazole | activity compared with Clotrimazole (MIC parameters) (Candida albicans): considerably less active than Clotrimazole
Clc1ccc(C(c2ccccc2)n2ccnc2)c(Cl)c1 (centres unmarked) [WAS 2162, 1-[(2,4-dichlorophenyl)phenylmethyl]-1H-imidazole] | 94.47 | – | – | – | – | – | – | – | – | – | – | – | – | – | – | – | – | – | considerably less active than Clotrimazole | –

From patent publication EP0392326B1, “Dichloro-substituted imidazole derivatives as antifungal agents” (SOCIEDAD ESPANOLA DE ESPECIALIDADES FARMACO-TERAPEUTICAS, …, priority 1989, dated 1990)
